Source: ChEMBL document CHEMBL1123912, “Analogues of the cytostatic and antimitogenic agents chlamydocin and HC-toxin: synthesis and biological activity of chloromethyl ketone and diazomethyl ketone functionalized cyclic tetrapeptides” (J Med Chem, 1987)
In brackets after ≈: the same amount, converted by molar mass.

Species on record: Mus musculus
Test: Compound was evaluated for the inhibition of Con A (concanavalin A) stimulated murine thymocyte mitogenesis.
Assay type: functional
Settings: not given
`C[C@@H]1NC(=O)[C@H](C)NC(=O)[C@@H]2CCCN2C(=O)[C@H](CCCCCC(=O)CCl)NC1=O` showed an IC50 of 0.04 µg/mL (≈ 0.0903 µM). In the case of `C[C@@H]1NC(=O)[C@H](C)NC(=O)[C@@H]2CCCN2C(=O)[C@H](CCCCCC(=O)C=[N+]=[N-])NC1=O`, the IC50 is reported as > 2 µg/mL. With `C[C@@H]1NC(=O)[C@H](Cc2ccccc2)NC(=O)[C@@H]2CCCN2C(=O)[C@H](CCCCCC(=O)CCl)NC1=O` the IC50 was 0.1 µg/mL (≈ 0.193 µM). Work on `CC1(C)NC(=O)[C@H](CCCCCC(=O)CCl)NC(=O)[C@H]2CCCN2C(=O)[C@H](Cc2ccccc2)NC1=O` yielded an IC50 of 0.01 µg/mL (≈ 0.0188 µM). `CC1(C)NC(=O)[C@H](CCCCCC(=O)[C@H]2CO2)NC(=O)[C@H]2CCCN2C(=O)[C@H](Cc2ccccc2)NC1=O` [CHLAMYDOCIN] was tested, and the IC50 was 0.003 µg/mL (≈ 0.0057 µM).

The molecules below were run on P815 (assay: Compound was evaluated for the inhibition of cell growth in mouse P-815 mastocytoma cells.). Settings: read-out: ED50 (the source's name).
Assay type: functional
`CC1(C)NC(=O)[C@H](CCCCCC(=O)[C@H]2CO2)NC(=O)[C@H]2CCCN2C(=O)[C@H](Cc2ccccc2)NC1=O` [CHLAMYDOCIN] gave an EC50 of 0.00036 µg/mL (≈ 0.000684 µM).
